Experiments:
Rattus norvegicus [1] = assay: Renal clearance in wild-type bile duct-cannulated Sprague-Dawley rat at 2 mg/kg, iv relative to total clearance; assay type: ADME, organism-based, Kidney; design: dose 2 mg/kg, route intravenous; settings: in vivo
Rattus norvegicus [2] = assay: Metabolism and biliary clearance in P-gp-knockout Sprague-Dawley rat at 2 mg/kg, iv relative to total clearance; assay type: ADME, organism-based, Bile; design: dose 2 mg/kg, route intravenous; settings: in vivo
[3] = Cmax in wild-type bile duct-cannulated Sprague-Dawley rat at 2 mg/kg, iv; assay type: ADME, organism-based; design: dose 2 mg/kg, route intravenous; settings: in vivo
Canis familiaris [4] = assay: Metabolism and biliary clearance in bile duct-cannulated beagle dog at 1 mg/kg, iv administered as 5 mins infusion; assay type: ADME, organism-based, Canis lupus familiaris; design: dose 1 mg/kg, route intravenous; settings: in vivo
[5] = Drug recovery in urine of bile duct-cannulated beagle dog at 1 mg/kg, iv administered as 5 mins infusion measured up to 72 hrs; assay type: ADME, organism-based, Canis lupus familiaris; design: dose 1 mg/kg, route intravenous; settings: read-out: Drug recovery
Rattus norvegicus [6] = assay: Metabolism and biliary clearance in wild-type bile duct-cannulated Sprague-Dawley rat at 2 mg/kg, iv relative to total clearance; assay type: ADME, organism-based; design: dose 2 mg/kg, route intravenous; settings: in vivo
Rattus norvegicus [7] = assay: Intestinal clearance in BCRP-knockout Sprague-Dawley rat at 2 mg/kg, iv; assay type: ADME, organism-based; design: dose 2 mg/kg, route intravenous; settings: in vivo
[8] = Renal clearance in bile duct-cannulated beagle dog at 1 mg/kg, iv administered as 5 mins infusion followed by activated charcoal administration 10 to 420 mins post compound dosing; assay type: ADME, organism-based, Canis lupus familiaris, Kidney; design: dose 1 mg/kg, route intravenous; settings: in vivo
[9] = Volume of distribution at steady state in wild-type bile duct-cannulated Sprague-Dawley rat at 2 mg/kg, iv administered 0.125 hr post GF-120918 treatment; assay type: ADME, organism-based; design: dose 2 mg/kg, route intravenous; settings: in vivo, with GF-120918, read-out: Vdss
Rattus norvegicus [10] = assay: Intestinal clearance in wild-type bile duct-cannulated Sprague-Dawley rat at 2 mg/kg, iv; assay type: ADME, organism-based; design: dose 2 mg/kg, route intravenous; settings: in vivo
[11] = AUC (0 to infinity) in P-gp-knockout Sprague-Dawley rat at 2 mg/kg, iv; assay type: ADME, organism-based; design: time infinity, dose 2 mg/kg, route intravenous; settings: plasma
[12] = Cmax in wild-type 30 mins activated charcoal pre-treated bile duct-cannulated Sprague-Dawley rat at 2 mg/kg, iv followed by activated charcoal administration 5 to 180 mins post compound dosing; assay type: ADME, organism-based; design: dose 2 mg/kg, route intravenous; settings: in vivo
[13] = Volume of distribution at steady state in wild-type 30 mins activated charcoal pre-treated bile duct-cannulated Sprague-Dawley rat at 2 mg/kg, iv followed by activated charcoal administration 5 to 180 mins post compound dosing; assay type: ADME, organism-based; design: dose 2 mg/kg, route intravenous; settings: in vivo, read-out: Vdss
Rattus norvegicus [14] = assay: Renal clearance in wild-type bile duct-cannulated Sprague-Dawley rat at 2 mg/kg, iv administered 0.125 hr post GF-120918 treatment relative to total clearance; assay type: ADME, organism-based, Kidney; design: dose 2 mg/kg, route intravenous; settings: in vivo
[15] = Volume of distribution at steady state in BCRP-knockout Sprague-Dawley rat at 2 mg/kg, iv; assay type: ADME, organism-based; design: dose 2 mg/kg, route intravenous; settings: in vivo, read-out: Vdss
[16] = Drug recovery in feces of 30 mins activated charcoal pre-treated bile duct-cannulated Sprague-Dawley rat at 2 mg/kg, iv followed by activated charcoal administration 5 to 180 mins post compound dosing measured up to 48 hrs; assay type: ADME, organism-based; design: dose 2 mg/kg, route intravenous; settings: read-out: Drug recovery
Canis familiaris [17] = assay: Intestinal clearance in bile duct-cannulated beagle dog at 1 mg/kg, iv administered as 5 mins infusion; assay type: ADME, organism-based, Canis lupus familiaris; design: dose 1 mg/kg, route intravenous; settings: in vivo
[18] = Volume of distribution at steady state in bile duct-cannulated beagle dog at 1 mg/kg, iv administered as 5 mins infusion; assay type: ADME, organism-based, Canis lupus familiaris; design: dose 1 mg/kg, route intravenous; settings: in vivo, read-out: Vdss
Rattus norvegicus [19] = assay: Intestinal clearance in wild-type bile duct-cannulated Sprague-Dawley rat at 2 mg/kg, iv administered 0.125 hr post GF-120918 treatment; assay type: ADME, organism-based; design: dose 2 mg/kg, route intravenous; settings: in vivo
[20] = Half life in bile duct-cannulated beagle dog at 1 mg/kg, iv administered as 5 mins infusion followed by activated charcoal administration 10 to 420 mins post compound dosing; assay type: ADME, organism-based, Canis lupus familiaris; design: dose 1 mg/kg, route intravenous; settings: in vivo
[21] = Drug recovery in feces of bile duct-cannulated Sprague-Dawley rat at 2 mg/kg, iv measured up to 24 hrs; assay type: ADME, organism-based; design: dose 2 mg/kg, route intravenous; settings: read-out: Drug recovery
[22] = Clearance in wild-type bile duct-cannulated Sprague-Dawley rat at 2 mg/kg, iv; assay type: ADME, organism-based; design: dose 2 mg/kg, route intravenous; settings: in vivo
Rattus norvegicus [23] = assay: Intestinal clearance in P-gp-knockout Sprague-Dawley rat at 2 mg/kg, iv relative to total clearance; assay type: ADME, organism-based; design: dose 2 mg/kg, route intravenous; settings: in vivo
[24] = Drug recovery in feces of bile duct-cannulated Sprague-Dawley rat at 30 mg/kg, po measured up to 48 hrs; assay type: ADME, organism-based; design: dose 30 mg/kg, route oral; settings: read-out: Drug recovery
[25] = Renal clearance in bile duct-cannulated beagle dog at 1 mg/kg, iv administered as 5 mins infusion; assay type: ADME, organism-based, Canis lupus familiaris, Kidney; design: dose 1 mg/kg, route intravenous; settings: in vivo
[26] = Cmax in BCRP-knockout Sprague-Dawley rat at 2 mg/kg, iv; assay type: ADME, organism-based; design: dose 2 mg/kg, route intravenous; settings: in vivo
[27] = Drug recovery in bile of bile duct-cannulated beagle dog at 1 mg/kg, iv administered as 5 mins infusion followed by activated charcoal administration 10 to 420 mins post compound measured up to 72 hrs; assay type: ADME, organism-based, Canis lupus familiaris; design: dose 1 mg/kg, route intravenous; settings: read-out: Drug recovery

COc1ccc(-n2nc(C(N)=O)c3c2[14C](=O)N(c2ccc(N4CCCCC4=O)cc2)CC3)cc1
CL (Rattus norvegicus [1]): 51% | CL (Rattus norvegicus [2]): 33% | Cmax [3]: 2260 ng/mL | CL (Canis familiaris [4]): 0.288 mL/min/kg | dose excreted [5]: 13.5% | CL (Rattus norvegicus [6]): 28% | CL (Rattus norvegicus [7]): 5.67 mL/min/kg | CL renal [8]: 0.122 mL/min/kg | Vd [9]: 1.6 L/kg | CL (Rattus norvegicus [10]): 5 mL/min/kg | AUC(0-inf) [11]: 2040 ng·h/mL | Cmax [12]: 1640 ng/mL | Vd [13]: 1.2 L/kg | CL (Rattus norvegicus [14]): 50% | Vd [15]: 1.8 L/kg | dose excreted [16]: 28.8% | CL (Canis familiaris [17]): 0.287 mL/min/kg | Vd [18]: 0.2 L/kg | CL (Rattus norvegicus [19]): 1.7 mL/min/kg | half-life [20]: 1.8 h | dose excreted at 24 h [21]: 21.1% | clearance [22]: 23.3 mL/min/kg | CL (Rattus norvegicus [23]): 24% | dose excreted at 48 h [24]: 69.8% | CL renal at 5 min [25]: 0.0907 mL/min/kg | Cmax [26]: 2370 ng/mL | dose excreted [27]: 13.1%
